According to patent publication US20110251379A1, “COMPOUNDS USEFUL FOR TREATING NEURODEGENERATIVE DISORDERS” (Satori Pharmaceuticals, Inc., priority 2010, published 2011):
Like-named read-outs stand apart in the source and are kept apart here.

Key:
Type in all cases: cell-based
Aβ-42 = assay: MSD Human (6E10) Ab 3-PLEX elisa, conditioned media of 2B7 cells: Aβ-42; conditions: Homo sapiens; for IC50: Aβ-42 (superscript c); for inhibition at 20 µM: Aβ-42, 20 μM
Summary of the method: (§1)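 Confluent 2B7 cells were treated with compounds for 5 hours at 37° C in media with 1% DMSO. Conditioned media, diluted 1:1 in blocking buffer, was incubated overnight at 4 °C or 2 h at room temperature on MSD 6E10 plates. Aβ levels were read against seven-point standard curves, and IC50 was obtained from 4-parameter fits of percent vehicle.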

Aβ-40 = assay: MSD Human (6E10) Ab 3-PLEX elisa, conditioned media of 2B7 cells: Aβ-40; conditions: Homo sapiens; for IC50: Aβ-40 (superscript b); for inhibition at 100 µM: Aβ-40, 100 μM; for inhibition at 20 µM: Aβ-40, 20 μM
Summary of the method: as §1

Aβ-38 = assay: MSD Human (6E10) Ab 3-PLEX elisa, conditioned media of 2B7 cells: Aβ-38; conditions: Homo sapiens; for IC50: Aβ-38 (superscript a); for inhibition at 20 µM: Aβ-38, 20 μM
Summary of the method: as §1

`C[C@@H]1CC(CN2CCC[C@@H]2C(=O)O)OC2[C@H]1[C@@]1(C)CC[C@@]34C[C@@]35CC[C@H](O[C@H]3CN(C(=O)CC6CC6)CCO3)C(C)(C)[C@@H]5CCC4[C@]1(C)[C@H]2O` (stereo partly drawn) showed an IC50 (Aβ-42; read-out: IC50 range) greater than 10 µM, an IC50 (Aβ-40; read-out: IC50 range) greater than 10 µM and an IC50 (Aβ-38; read-out: IC50 range) greater than 10 µM.

Compound `C[C@@H]1CC(CN2CCC[C@H]2C(=O)O)OC2[C@H]1[C@@]1(C)CC[C@@]34C[C@@]35CC[C@H](O[C@H]3CN(C(=O)CC6CC6)CCO3)C(C)(C)[C@@H]5CCC4[C@]1(C)[C@H]2O` (stereo partly drawn) has an IC50 (Aβ-42; read-out: IC50 range) greater than 10 µM, an inhibition at 100 µM (Aβ-40) of 25 to 75% and an inhibition at 100 µM (Aβ-38; Aβ-38, 100 μM) of 25 to 75%.

`C[C@@H]1CC(CN(C)CC(=O)O)OC2[C@H]1[C@@]1(C)CC[C@@]34C[C@@]35CC[C@H](O[C@H]3CN(C(=O)CC6CC6)CCO3)C(C)(C)[C@@H]5CCC4[C@]1(C)[C@H]2O` (stereo partly drawn) showed an IC50 (Aβ-42; read-out: IC50 range) greater than 10 µM, an IC50 (Aβ-40; read-out: IC50 range) greater than 10 µM and an IC50 (Aβ-38; read-out: IC50 range) greater than 10 µM.

With `C[C@@H]1CC(COC(N)=O)OC2[C@H]1[C@@]1(C)CC[C@@]34C[C@@]35CC[C@H](O[C@H]3CN(C(=O)CC6CC6)CCO3)C(C)(C)[C@@H]5CCC4[C@]1(C)[C@H]2O` (stereo partly drawn) the IC50 (Aβ-42; read-out: IC50 range) was 1 to 10 µM, the IC50 (Aβ-40; read-out: IC50 range) was greater than 10 µM and the IC50 (Aβ-38; read-out: IC50 range) was less than 1 µM.

With `C[C@@H]1CC(COC(=O)N2CCC2)OC2[C@H]1[C@@]1(C)CC[C@@]34C[C@@]35CC[C@H](O[C@H]3CN(C(=O)CC6CC6)CCO3)C(C)(C)[C@@H]5CCC4[C@]1(C)[C@H]2O` (stereo partly drawn) the IC50 (Aβ-42; read-out: IC50 range) was 1 to 10 µM, the IC50 (Aβ-40; read-out: IC50 range) was 1 to 10 µM and the IC50 (Aβ-38; read-out: IC50 range) was less than 1 µM.

In the case of `COC(=O)NCCC1C[C@@H](C)C2C(O1)[C@H](O)[C@@]1(C)[C@@H]3CC[C@H]4C(C)(C)[C@@H](OC5CN(C(=O)CC6CC6)CCO5)CC[C@@]45C[C@@]35CC[C@]21C` (stereo partly drawn), the IC50 (Aβ-42; read-out: IC50 range) is reported as 1 to 10 µM, the inhibition at 100 µM (Aβ-40) is reported as 25 to 75% and the IC50 (Aβ-38; read-out: IC50 range) is reported as 1 to 10 µM.

With `C[C@@H]1CC(CC(=O)O)OC2[C@H]1[C@@]1(C)CC[C@@]34C[C@@]35CC[C@H](O[C@H]3CN(C(=O)CC6CC6)CCO3)C(C)(C)[C@@H]5CCC4[C@]1(C)[C@H]2O` (stereo partly drawn) the IC50 (Aβ-42; read-out: IC50 range) was 1 to 10 µM, the IC50 (Aβ-40; read-out: IC50 range) was greater than 10 µM and the IC50 (Aβ-38; read-out: IC50 range) was greater than 10 µM.

Compound `C[C@@H]1CC(CCC(N)=O)OC2C1[C@@]1(C)CC[C@@]34C[C@@]35CC[C@H](OC3CN(C(=O)CC6CC6)CCO3)C(C)(C)[C@@H]5CC[C@H]4[C@]1(C)[C@H]2O` (stereo partly drawn) has an IC50 (Aβ-42; read-out: IC50 range) of 1 to 10 µM, an IC50 (Aβ-40; read-out: IC50 range) greater than 10 µM and an IC50 (Aβ-38; read-out: IC50 range) of 1 to 10 µM.

For `COC(=O)OCC1C[C@@H](C)[C@H]2C(O1)[C@H](O)[C@@]1(C)C3CC[C@H]4C(C)(C)[C@@H](OC5CN(C(=O)CC6CC6)CCO5)CC[C@@]45C[C@@]35CC[C@]21C` (stereo partly drawn), the inhibition at 100 µM (Aβ-42; Aβ-42, 100 μM) was 25 to 75%, the inhibition at 100 µM (Aβ-40) was 25 to 75% and the IC50 (Aβ-38; read-out: IC50 range) was 1 to 10 µM.

Work on `C[C@@H]1CC(C(=O)O)OC2[C@H]1[C@@]1(C)CC[C@@]34C[C@@]35CC[C@H](OC3CN(C(=O)CC6CC6)CCO3)C(C)(C)[C@@H]5CCC4[C@]1(C)[C@H]2O` (stereo partly drawn) yielded an IC50 (Aβ-42; read-out: IC50 range) of 1 to 10 µM, an IC50 (Aβ-40; read-out: IC50 range) greater than 10 µM and an IC50 (Aβ-38; read-out: IC50 range) greater than 10 µM.

Compound `CC(=O)NCCC1C[C@@H](C)[C@H]2C(O1)[C@H](O)[C@@]1(C)C3CC[C@H]4C(C)(C)[C@@H](O)CC[C@@]45C[C@@]35CC[C@]21C` (stereo partly drawn) has an IC50 (Aβ-42; read-out: 50% reduction value) of 1 to 10 µM, an inhibition at 20 µM (Aβ-40) of less than 25% and an inhibition at 20 µM (Aβ-38) of 25 to 75%.

`COC(=O)OCC1C[C@@H](C)[C@H]2C(O1)[C@H](O)[C@@]1(C)C3CC[C@H]4C(C)(C)[C@@H](O)CC[C@@]45C[C@@]35CC[C@]21C` (stereo partly drawn) gave an inhibition at 20 µM (Aβ-42) of 25 to 75%, an inhibition at 20 µM (Aβ-40) of 25 to 75% and an inhibition at 20 µM (Aβ-38) of 25 to 75%.

`C[C@@H]1CC(COC(N)=O)OC2[C@H]1[C@@]1(C)CC[C@@]34C[C@@]35CC[C@H](O)C(C)(C)[C@@H]5CCC4[C@]1(C)[C@H]2O` (stereo partly drawn) showed an inhibition at 20 µM (Aβ-42) of 25 to 75%, an IC50 (Aβ-40; read-out: 50% reduction value) greater than 10 µM and an IC50 (Aβ-38; read-out: 50% reduction value) greater than 10 µM. It also gave an inhibition at 20 µM (Aβ-38) of 25 to 75%.

Compound `CNC(=O)OCC1C[C@@H](C)[C@H]2C(O1)[C@H](O)[C@@]1(C)C3CC[C@H]4C(C)(C)[C@@H](O)CC[C@@]45C[C@@]35CC[C@]21C` (stereo partly drawn) has an IC50 (Aβ-42; read-out: 50% reduction value) of 1 to 10 µM, an inhibition at 20 µM (Aβ-40) of 25 to 75% and an IC50 (Aβ-38; read-out: 50% reduction value) of 1 to 10 µM. For the same compound, the inhibition at 20 µM (Aβ-38) was 25 to 75%.

In the case of `C[C@@H]1CC(COC(=O)N(C)C)OC2[C@H]1[C@@]1(C)CC[C@@]34C[C@@]35CC[C@H](O)C(C)(C)[C@@H]5CCC4[C@]1(C)[C@H]2O` (stereo partly drawn), the inhibition at 20 µM (Aβ-42) is reported as 25 to 75%, the IC50 (Aβ-40; read-out: 50% reduction value) is reported as greater than 10 µM and the inhibition at 20 µM (Aβ-40) is reported as 25 to 75%. For the same compound, the inhibition at 4 µM (Aβ-38; Aβ-38, 4 μM) was 25 to 75%.

`C[C@@H]1CC(C(=O)O)OC2C1[C@@]1(C)CC[C@@]34C[C@@]35CC[C@H](OC3CN(C6COC6)CCO3)C(C)(C)[C@@H]5CC[C@H]4[C@]1(C)[C@H]2O` (stereo partly drawn) was tested, and the inhibition at 20 µM (Aβ-42) was less than 25%, the inhibition at 20 µM (Aβ-40) was less than 25% and the inhibition at 20 µM (Aβ-38) was less than 25%.
